Test results reported in ChEMBL document CHEMBL1123842, “Structural modification study of mitoxantrone (DHAQ). Chloro-substituted mono- and bis[(aminoalkyl)amino]anthraquinones” (1987).

How the values were obtained:
P388 [1] = assay: In vivo antineoplastic activity was determined in BDF1 mice implanted with P388 leukemia and activity is expressed as T/C at 200 mg/kg ip dose (Q4dx2 treatment); assay type: functional, Mus musculus; details: route intraperitoneal
L1210 = assay: In vitro cytotoxicity against L1210 leukemia cells was determined; assay type: functional; details: Mus musculus
P388 [2] = assay: In vivo antineoplastic activity was determined in BDF1 mice implanted with P388 leukemia and activity is expressed as T/C at 400 mg/kg ip dose (Q4dx2 treatment); assay type: functional, Mus musculus; details: route intraperitoneal
[3] = test system: Colon adenocarcinoma cell line; assay: In vitro cytotoxicity against Human colon adenocarcinoma cells was determined; assay type: functional
P388 [4] = assay: In vivo antineoplastic activity was determined in BDF1 mice implanted with P388 leukemia and activity is expressed as T/C at 100 mg/kg ip dose (Q4dx2 treatment); assay type: functional, Mus musculus; details: route intraperitoneal
P388 [5] = assay: In vivo antineoplastic activity was determined in BDF1 mice implanted with P388 leukemia and activity is expressed as T/C at 60 mg/kg ip dose (Q1dx5 treatment); details: route intraperitoneal
P388 [6] = assay: In vivo antineoplastic activity was determined in BDF1 mice implanted with P388 leukemia and activity is expressed as T/C at 30 mg/kg ip dose (Q1dx5 treatment); details: route intraperitoneal
P388 [7] = assay: In vivo antineoplastic activity was determined in BDF1 mice implanted with P388 leukemia and activity is expressed as T/C at 120 mg/kg ip dose (Q1dx5 treatment); details: route intraperitoneal
P388 [8] = assay: In vivo antineoplastic activity was determined in BDF1 mice implanted with P388 leukemia and activity is expressed as T/C at 200 mg/kg ip dose (Q1dx5 treatment); details: route intraperitoneal
P388 [9] = assay: In vivo antineoplastic activity was determined in BDF1 mice implanted with P388 leukemia and activity is expressed as T/C at 100 mg/kg ip dose (Q4dx5 treatment); assay type: functional, Mus musculus; details: route intraperitoneal
B16 [10] = assay: In vivo antineoplastic activity was determined in BDF1 mice implanted with B16 melanoma and activity expressed as T/C at 25 mg/kg ip dose (Q1Dx9 treatment); assay type: functional, Mus musculus; details: route intraperitoneal
B16 [11] = assay: In vivo antineoplastic activity was determined in BDF1 mice implanted with B16 melanoma and activity expressed as T/C at 6.25 mg/kg ip dose (Q1Dx9 treatment); assay type: functional, Mus musculus; details: route intraperitoneal
B16 [12] = assay: In vivo antineoplastic activity was determined in BDF1 mice implanted with B16 melanoma and activity expressed as T/C at 50 mg/kg ip dose (Q1Dx9 treatment); assay type: functional, Mus musculus; details: route intraperitoneal
B16 [13] = assay: In vivo antineoplastic activity was determined in BDF1 mice implanted with B16 melanoma and activity expressed as T/C at 12.5 mg/kg ip dose (Q1Dx9 treatment); assay type: functional, Mus musculus; details: route intraperitoneal
P388 [14] = assay: In vivo antineoplastic activity was determined in BDF1 mice implanted with P388 leukemia and activity is expressed as T/C at 50 mg/kg ip dose (Q4dx2 treatment); assay type: functional, Mus musculus; details: route intraperitoneal
P388 [15] = assay: In vivo antineoplastic activity was determined in BDF1 mice implanted with P388 leukemia and activity is expressed as T/C at 120 mg/kg ip dose (Q1dx5 treatment); details: route intraperitoneal; remark: listed apart in the source
P388 [16] = assay: In vivo antineoplastic activity was determined in BDF1 mice implanted with P388 leukemia and activity is expressed as T/C at 80 mg/kg ip dose (Q4dx2 treatment); assay type: functional, Mus musculus; details: route intraperitoneal
P388 [17] = assay: In vivo antineoplastic activity was determined in BDF1 mice implanted with P388 leukemia and activity is expressed as T/C at 10 mg/kg ip dose (Q4dx2 treatment); assay type: functional, Mus musculus; details: route intraperitoneal
P388 [18] = assay: In vivo antineoplastic activity was determined in BDF1 mice implanted with P388 leukemia and activity is expressed as T/C at 20 mg/kg ip dose (Q4dx2 treatment); assay type: functional, Mus musculus; details: route intraperitoneal
P388 [19] = assay: In vivo antineoplastic activity was determined in BDF1 mice implanted with P388 leukemia and activity is expressed as T/C at 40 mg/kg ip dose (Q4dx2 treatment); assay type: functional, Mus musculus; details: route intraperitoneal
P388 [20] = assay: In vivo antineoplastic activity was determined in BDF1 mice implanted with P388 leukemia and activity is expressed as T/C at 160 mg/kg ip dose (Q4dx2 treatment); assay type: functional, Mus musculus; details: route intraperitoneal
P388 [21] = assay: In vivo antineoplastic activity was determined in BDF1 mice implanted with P388 leukemia and activity is expressed as T/C at 160 mg/kg ip dose (Q1dx9 treatment); details: route intraperitoneal
P388 [22] = assay: In vivo antineoplastic activity was determined in BDF1 mice implanted with P388 leukemia and activity is expressed as T/C at 80 mg/kg ip dose (Q1dx9 treatment); details: route intraperitoneal
P388 [23] = assay: Antineoplastic activity was determined in BDF1 mice in vivo implanted with P388 leukemia and t/c was determined at 40 mg/kg ip dose (Q4dx9 treatment); assay type: functional, Mus musculus; details: route intraperitoneal
B16 [24] = assay: In vivo antineoplastic activity was determined in BDF1 mice implanted with B16 melanoma and activity expressed as T/C at 160 mg/kg ip dose (Q1Dx9 treatment); assay type: functional, Mus musculus; details: route intraperitoneal
B16 [25] = assay: In vivo antineoplastic activity was determined in BDF1 mice implanted with B16 melanoma and activity expressed as T/C at 20 mg/kg ip dose (Q1Dx9 treatment); assay type: functional, Mus musculus; details: route intraperitoneal
P388 [26] = assay: In vivo antineoplastic activity was determined in BDF1 mice implanted with P388 leukemia and activity is expressed as T/C at 25 mg/kg ip dose (Q1dx5 treatment); details: route intraperitoneal
P388 [27] = assay: In vivo antineoplastic activity was determined in BDF1 mice implanted with P388 leukemia and activity is expressed as T/C at 100 mg/kg ip dose (Q1dx5 treatment); details: route intraperitoneal
B16 [28] = assay: In vivo antineoplastic activity was determined in BDF1 mice implanted with B16 melanoma and activity expressed as T/C at 40 mg/kg ip dose (Q1Dx9 treatment); assay type: functional, Mus musculus; details: route intraperitoneal
P388 [29] = assay: In vivo antineoplastic activity was determined in BDF1 mice implanted with P388 leukemia and activity is expressed as T/C at 12.5 mg/kg ip dose (Q4dx5 treatment); assay type: functional, Mus musculus; details: route intraperitoneal
B16 [30] = assay: In vivo antineoplastic activity was determined in BDF1 mice implanted with B16 melanoma and activity expressed as T/C at 80 mg/kg ip dose (Q1Dx9 treatment); assay type: functional, Mus musculus; details: route intraperitoneal
B16 [31] = assay: In vivo antineoplastic activity was determined in BDF1 mice implanted with B16 melanoma and activity expressed as T/C at 100 mg/kg ip dose (Q1Dx9 treatment); assay type: functional, Mus musculus; details: route intraperitoneal
P388 [32] = assay: In vivo antineoplastic activity was determined in BDF1 mice implanted with P388 leukemia and activity is expressed as T/C at 6.25 mg/kg ip dose (Q4dx5 treatment); assay type: functional, Mus musculus; details: route intraperitoneal
P388 [33] = assay: In vivo antineoplastic activity was determined in BDF1 mice implanted with P388 leukemia and activity is expressed as T/C at 50 mg/kg ip dose (Q1dx5 treatment); details: route intraperitoneal
P388 [34] = assay: In vivo antineoplastic activity was determined in BDF1 mice implanted with P388 leukemia and activity is expressed as T/C at 1 mg/kg; assay type: functional, Mus musculus
P388 [35] = assay: In vivo antineoplastic activity was determined in BDF1 mice implanted with P388 leukemia and activity is expressed as T/C at 0.25 mg/kg; assay type: functional, Mus musculus
P388 [36] = assay: In vivo antineoplastic activity was determined in BDF1 mice implanted with P388 leukemia and activity is expressed as T/C at 0.06 mg/kg; assay type: functional, Mus musculus
P388 [37] = assay: In vivo antineoplastic activity was determined in BDF1 mice implanted with P388 leukemia and activity is expressed as T/C at 2 mg/kg; assay type: functional, Mus musculus
P388 [38] = assay: In vivo antineoplastic activity was determined in BDF1 mice implanted with P388 leukemia and activity is expressed as T/C at 0.5 mg/kg; assay type: functional, Mus musculus
P388 [39] = assay: In vivo antineoplastic activity was determined in BDF1 mice implanted with P388 leukemia and activity is expressed as T/C at 0.12 mg/kg; assay type: functional, Mus musculus

CN(C)CCNc1ccc(Cl)c2c1C(=O)c1c(O)ccc(Cl)c1C2=O
T/C (P388 [1]): 113 | CC50 (L1210): 176 nM | T/C (P388 [2]): 125

O=C1c2cccc(NCCNCCO)c2C(=O)c2cccc(Cl)c21
CC50 [3]: 1400 nM | T/C (P388 [1]): 105 | CC50 (L1210): 1170 nM | T/C (P388 [4]): 100

CN(C)CCNc1ccc(Cl)c2c1C(=O)c1c(O)ccc(O)c1C2=O
T/C (P388 [5]): 137 | T/C (P388 [6]): 121 | CC50 (L1210): 36.2 nM | T/C (P388 [7]): 169

CN(C)CCNc1ccc(Cl)c2c1C(=O)c1c(NCCN(C)C)ccc(Cl)c1C2=O
CC50 (L1210): 1670 nM | T/C (P388 [8]): 119 | T/C (P388 [9]): 113

CN(C)CCCNc1ccc(Cl)c2c1C(=O)c1c(O)ccc(O)c1C2=O
T/C (P388 [5]): 123 | T/C (P388 [6]): 109 | CC50 (L1210): 265 nM | T/C (P388 [7]): 129

CN(C)CCNc1ccc(NCCN(C)C)c2c1C(=O)c1c(Cl)ccc(Cl)c1C2=O
CC50 [3]: 130 nM | T/C (P388 [1]): 117 | T/C (B16 [10]): 141 | CC50 (L1210): 117 nM | T/C (B16 [11]): 117 | T/C (B16 [12]): 133 | T/C value (B16 [13]): 143 | T/C (P388 [14]): 110 | T/C (P388 [4]): 120

O=C1c2c(O)ccc(Cl)c2C(=O)c2c(NCCNCCO)ccc(Cl)c21
T/C (P388 [1]): 96 | T/C (P388 [2]): 111

CN(C)CCNc1ccc(O)c2c1C(=O)c1c(Cl)ccc(Cl)c1C2=O
CC50 [3]: 522 nM | T/C (P388 [5]): 150 | T/C (P388 [6]): 136 | CC50 (L1210): 86.9 nM | T/C (P388 [15]): 176

CN(C)CCNc1ccc(Cl)c2c1C(=O)c1c(Cl)ccc(NCCN(C)C)c1C2=O
CC50 [3]: 229 nM | T/C (P388 [1]): 128 | CC50 (L1210): 385 nM | T/C (P388 [2]): 123 | T/C (P388 [4]): 115

O=C1c2c(O)ccc(O)c2C(=O)c2c(NCCNCCO)ccc(Cl)c21
T/C (P388 [16]): 154 | T/C (P388 [17]): 113 | T/C (P388 [18]): 125 | CC50 (L1210): 398 nM | T/C (P388 [19]): 130 | T/C (P388 [20]): 184

O=C1c2cccc(Cl)c2C(=O)c2c(NCCNCCO)cccc21
T/C (P388 [21]): 120 | T/C (P388 [22]): 124 | T/C (P388 [23]): 116

O=C1c2c(O)ccc(NCCNCCO)c2C(=O)c2c(Cl)ccc(Cl)c21
T/C (B16 [10]): 199 | T/C (B16 [24]): 326 | CC50 (L1210): 86.6 nM | T/C (B16 [11]): 166 | T/C (B16 [25]): 224 | T/C (P388 [26]): 203 | T/C (B16 [12]): 252 | T/C (P388 [27]): 219 | T/C (B16 [28]): 231 | T/C (P388 [29]): 146 | T/C (B16 [30]): 271 | T/C (B16 [31]): 270 | T/C (B16 [13]): 172 | T/C (P388 [32]): 154 | T/C (P388 [33]): 180

CN(C)CCNc1ccc(Cl)c2c1C(=O)c1c(Cl)ccc(O)c1C2=O
T/C (P388 [16]): 117 | CC50 (L1210): 1130 nM | T/C (P388 [19]): 103

O=C1c2c(O)ccc(O)c2C(=O)c2c(NCCNCCO)ccc(NCCNCCO)c21 [MITOXANTRONE]
T/C (P388 [34]): 277 | T/C (P388 [35]): 280 | T/C (P388 [36]): 208 | T/C (P388 [37]): 280 | T/C (P388 [38]): 299 | T/C (P388 [39]): 200
